Tests used:
[1] = target: T1, G12V-mutant human KRAS (amino acid residues 1-188) (Homo sapiens, UniProt P01116, G12V); assay: KRAS Binding Competition Assay (AlphaScreen; biotinylated KRpep-2d analogue), G12V; settings: geometric mean, read-out: KRAS GMean IC50 (uM) MUTATION: G12V
T1 construct: G12V-mutant human KRAS (amino acid residues 1-188) with FLAG tag was purified from E. coli; made in house; host or cells: E. coli

[2] = target: T2, G12D-mutant human KRAS (amino acid residues 1-188) (Homo sapiens, UniProt P01116, G12D); assay: KRAS Binding Disruption Assay (AlphaScreen; biotinylated KRpep-2d analogue or RAF1-RBD), G12D; settings: KRAS G12D; geometric mean; read-out: KRAS GMean IC50 (uM) MUTATION: G12D
T2 construct: G12D or G12C-mutant human KRAS (amino acid residues 1-188) with FLAG tag; made in house; host or cells: E. coli
How it was run: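 Mutant KRAS (5-20 nM) incubated 1 h at 25° C with test compound and 5-20 nM biotinylated KRpep-2d analogue or RAF1-RBD in 20 mM HEPES pH 7.5, 100 mM NaCl, 5 mM MgCl2, 0.01% Tween-20, 0.01% BSA.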

| IC50 [1] [µM] | IC50 [2] [µM] | SMILES |
| --- | --- | --- |
| 10 to 100 | 10 to 100 | C[C@H](O)C(=O)N1C[C@H]2CC[C@@H](C1)N2c1nc(OC[C@@H]2CCCN2C)nc2cc(-c3cc(O)cc4ccccc34)ccc12 [P-0221, (S)-2-hydroxy-1-((1R,5S)-8-(7-(3-hydroxynaphthalen-1-yl)-2-(((S)-1-methylpyrrolidin-2-yl)methoxy)quinazolin-4-yl)-3,8-diazabicyclo[3.2.1]octan-3-yl)propan-1-one] |
| 100 to 1000 | 10 to 100 | CN1CCC[C@H]1COc1nc(N2[C@@H]3CC[C@H]2CN(C(=O)C2CCC(=O)N2)C3)c2ccc(-c3cc(O)cc4ccccc34)cc2n1 (stereo partly drawn) [P-0222, 5-((1R,5S)-8-(7-(3-hydroxynaphthalen-1-yl)-2-(((S)-1-methylpyrrolidin-2-yl)methoxy)quinazolin-4-yl)-3,8-diazabicyclo[3.2.1]octane-3-carbonyl)pyrrolidin-2-one] |
| 10 to 100 | 10 to 100 | CN1CCC[C@H]1COc1nc(N2[C@@H]3CC[C@H]2CN(C(=O)[C@@H](N)CO)C3)c2ccc(-c3cc(O)cc4ccccc34)cc2n1 [P-0223, (S)-2-amino-3-hydroxy-1-((1R,5S)-8-(7-(3-hydroxynaphthalen-1-yl)-2-(((S)-1-methylpyrrolidin-2-yl)methoxy)quinazolin-4-yl)-3,8-diazabicyclo[3.2.1]octan-3-yl)propan-1-one] |
| 0.0001 to 10 | 10 to 100 | CN1CCC[C@H]1COc1nc(N2[C@@H]3CC[C@H]2CN(C(=O)c2ncc[nH]2)C3)c2ccc(-c3cc(O)cc4ccccc34)cc2n1 [P-0224, ((1R,5S)-8-(7-(3-hydroxynaphthalen-1-yl)-2-(((S)-1-methylpyrrolidin-2-yl)methoxy)quinazolin-4-yl)-3,8-diazabicyclo[3.2.1]octan-3-yl)(1H-imidazol-2-yl)methanone] |
| 10 to 100 | 10 to 100 | CN1CCC[C@H]1COc1nc(N2[C@@H]3CC[C@H]2CN(CC(=O)Nc2ccccn2)C3)c2ccc(-c3cc(O)cc4ccccc34)cc2n1 [P-0225, 2-((1R,5S)-8-(7-(3-hydroxynaphthalen-1-yl)-2-(((S)-1-methylpyrrolidin-2-yl)methoxy)quinazolin-4-yl)-3,8-diazabicyclo[3.2.1]octan-3-yl)-N-(pyridin-2-yl)acetamide] |
| 100 to 1000 | 100 to 1000 | CN1CCC[C@H]1COc1nc(N2[C@@H]3CC[C@H]2CN(C2CNC2)C3)c2ccc(-c3cc(O)cc4ccccc34)cc2n1 [P-0226, 4-(4-((1R,5S)-3-(azetidin-3-yl)-3,8-diazabicyclo[3.2.1]octan-8-yl)-2-(((S)-1-methylpyrrolidin-2-yl)methoxy)quinazolin-7-yl)naphthalen-2-ol] |
| 100 to 1000 | 10 to 100 | CN1CCC[C@H]1COc1nc(N2[C@@H]3CC[C@H]2CN(C(=O)CC(N)=O)C3)c2ccc(-c3cc(O)cc4ccccc34)cc2n1 [P-0227, 3-((1R,5S)-8-(7-(3-hydroxynaphthalen-1-yl)-2-(((S)-1-methylpyrrolidin-2-yl)methoxy)quinazolin-4-yl)-3,8-diazabicyclo[3.2.1]octan-3-yl)-3-oxopropanamide] |
| 100 to 1000 | 10 to 100 | CN1CCC[C@H]1COc1nc(N2[C@@H]3CC[C@H]2CN(C(=O)Cc2cnn(C)c2)C3)c2ccc(-c3cc(O)cc4ccccc34)cc2n1 [P-0228, 1-((1R,5S)-8-(7-(3-hydroxynaphthalen-1-yl)-2-(((S)-1-methylpyrrolidin-2-yl)methoxy)quinazolin-4-yl)-3,8-diazabicyclo[3.2.1]octan-3-yl)-2-(1-methyl-1H-pyrazol-4-yl)ethan-1-one] |
| 10 to 100 | 10 to 100 | CN1CCC[C@H]1COc1nc(N2[C@@H]3CC[C@H]2CN(C(=O)C(=O)Nc2ccccn2)C3)c2ccc(-c3cc(O)cc4ccccc34)cc2n1 [P-0229, 2-((1R,5S)-8-(7-(3-hydroxynaphthalen-1-yl)-2-(((S)-1-methylpyrrolidin-2-yl)methoxy)quinazolin-4-yl)-3,8-diazabicyclo[3.2.1]octan-3-yl)-2-oxo-N-(pyridin-2-yl)acetamide] |
| 10 to 100 | 10 to 100 | CN1CCC[C@H]1COc1nc(N2[C@@H]3CC[C@H]2CN(C(=O)c2ncn[nH]2)C3)c2ccc(-c3cc(O)cc4ccccc34)cc2n1 [P-0230, ((1R,5S)-8-(7-(3-hydroxynaphthalen-1-yl)-2-(((S)-1-methylpyrrolidin-2-yl)methoxy)quinazolin-4-yl)-3,8-diazabicyclo[3.2.1]octan-3-yl)(1H-1,2,4-triazol-5-yl)methanone] |
| 10 to 100 | 10 to 100 | CN1CCC[C@H]1COc1nc(N2[C@@H]3CC[C@H]2CN(C(=N)N)C3)c2ccc(-c3cc(O)cc4ccccc34)cc2n1 [P-0231, (1R,5S)-8-(7-(3-hydroxynaphthalen-1-yl)-2-(((S)-1-methylpyrrolidin-2-yl)methoxy)quinazolin-4-yl)-3,8-diazabicyclo[3.2.1]octane-3-carboximidamide] |
| 10 to 100 | 0.0001 to 10 | Oc1cc(-c2ccc3c(N4[C@@H]5CC[C@H]4CNC5)nc(CCc4ccccn4)nc3c2)c2ccccc2c1 [P-0232, 4-(4-((1R,5S)-3,8-diazabicyclo[3.2.1]octan-8-yl)-2-(2-(pyridin-2-yl)ethyl)quinazolin-7-yl)naphthalen-2-ol] |
| 0.0001 to 10 | 0.0001 to 10 | NC(=O)CCc1nc(N2[C@@H]3CC[C@H]2CNC3)c2ccc(-c3cc(O)cc4ccccc34)cc2n1 [P-0233, 3-(4-((1R,5S)-3,8-diazabicyclo[3.2.1]octan-8-yl)-7-(3-hydroxynaphthalen-1-yl)quinazolin-2-yl)propanamide] |
| 100 to 1000 | 10 to 100 | CN1CCC[C@H]1COc1nc(N2C[C@H]3CC[C@@H](C2)N3)c2ccc(-c3cncc(Cl)c3Cl)cc2n1 [P-0234, 4-((1R,5S)-3,8-diazabicyclo[3.2.1]octan-3-yl)-7-(4,5-dichloropyridin-3-yl)-2-(((S)-1-methylpyrrolidin-2-yl)methoxy)quinazoline] |
| 10 to 100 | 10 to 100 | CN1CCC[C@H]1COc1nc(N2CC3CCC(C2)N3)c2ccc(-c3cc(Cl)cn4ccnc34)cc2n1 [P-0235] |
| 10 to 100 | 10 to 100 | CN1CCC[C@H]1COc1nc(N2C[C@H]3CC[C@@H](C2)N3)c2ccc(-c3c(Cl)ccc4[nH]ccc34)cc2n1 [P-0236, 4-((1R,5S)-3,8-diazabicyclo[3.2.1]octan-3-yl)-7-(5-chloro-1H-indol-4-yl)-2-(((S)-1-methylpyrrolidin-2-yl)methoxy)quinazoline] |
| 10 to 100 | 10 to 100 | CN1CCc2ccc(Oc3nc(N4[C@@H]5CC[C@H]4CNC5)c4ccc(-c5cc(O)cc6ccccc56)cc4n3)cc2C1 [P-0237, 4-(4-((1R,5S)-3,8-diazabicyclo[3.2.1]octan-8-yl)-2-((2-methyl-1,2,3,4-tetrahydroisoquinolin-7-yl)oxy)quinazolin-7-yl)naphthalen-2-ol] |
| 0.0001 to 10 | 0.0001 to 10 | CN1CCc2cc(Oc3nc(N4[C@@H]5CC[C@H]4CNC5)c4ccc(-c5cc(O)cc6ccccc56)cc4n3)ccc2C1 [P-0238, 4-(4-((1R,5S)-3,8-diazabicyclo[3.2.1]octan-8-yl)-2-((2-methyl-1,2,3,4-tetrahydroisoquinolin-6-yl)oxy)quinazolin-7-yl)naphthalen-2-ol] |
| 0.0001 to 10 | 0.0001 to 10 | CN1CCCC(Oc2nc(N3[C@@H]4CC[C@H]3CNC4)c3ccc(-c4cc(O)cc5ccccc45)cc3n2)C1 (stereo partly drawn) [P-0239, 4-(4-((1R,5S)-3,8-diazabicyclo[3.2.1]octan-8-yl)-2-((1-methylpiperidin-3-yl)oxy)quinazolin-7-yl)naphthalen-2-ol] |
| 0.0001 to 10 | 0.0001 to 10 | Oc1cc(-c2ccc3c(N4[C@@H]5CC[C@H]4CNC5)nc(Cc4cccnc4)nc3c2)c2ccccc2c1 [P-0240, 4-(4-((1R,5S)-3,8-diazabicyclo[3.2.1]octan-8-yl)-2-(pyridin-3-ylmethyl)quinazolin-7-yl)naphthalen-2-ol] |
| 0.0001 to 10 | 0.0001 to 10 | Oc1cc(-c2ccc3c(N4[C@@H]5CC[C@H]4CNC5)nc(CCc4cccnc4)nc3c2)c2ccccc2c1 [P-0241, 4-(4-((1R,5S)-3,8-diazabicyclo[3.2.1]octan-8-yl)-2-(2-(pyridin-3-yl)ethyl)quinazolin-7-yl)naphthalen-2-ol] |
| 0.0001 to 10 | 0.0001 to 10 | CN(C)c1ccc(CCc2nc(N3C[C@H]4CC[C@@H](C3)N4)c3ccc(-c4cc(O)cc5ccccc45)cc3n2)cc1 [P-0242, 4-(4-((1R,5S)-3,8-diazabicyclo[3.2.1]octan-3-yl)-2-(4-(dimethylamino)phenethyl)quinazo-lin-7-yl)naphthalen-2-ol] |
| 0.0001 to 10 | 0.0001 to 10 | Nc1ccc(CCc2nc(N3[C@@H]4CC[C@H]3CNC4)c3ccc(-c4cc(O)cc5ccccc45)cc3n2)cc1 [P-0243, 4-(2-(4-aminophenethyl)-4-((1R,5S)-3,8-diazabicyclo[3.2.1]octan-8-yl)quinazolin-7-yl)naphthalen-2-ol] |
| 10 to 100 | 10 to 100 | CN(C)c1ccc(/C=C/c2nc(N3[C@@H]4CC[C@H]3CNC4)c3ccc(-c4cc(O)cc5ccccc45)cc3n2)cc1 [P-0244, 4-(4-((1R,5S)-3,8-diazabicyclo[3.2.1]octan-8-yl)-2-((E)-4-(dimethylamino)styryl)quinazolin-7-yl)naphthalen-2-ol] |
| 0.0001 to 10 | 0.0001 to 10 | C[C@@H](Oc1nc(N2C[C@H]3CC[C@@H](C2)N3)c2ccc(-c3cc(O)cc4ccccc34)cc2n1)[C@@H]1CCCN1C [P-0245, 4-(4-((1R,5S)-3,8-diazabicyclo[3.2.1]octan-3-yl)-2-((R)-1-((S)-1-methylpyrrolidin-2-yl)ethoxy)quinazolin-7-yl)naphthalen-2-ol] |

— patent US20230081426A1, “COMPOUNDS AND METHODS FOR KRAS MODULATION AND INDICATIONS THEREFOR” (Plexxikon Inc., priority 2020, published 2023)
